One test concerns hM3Dq or rM3Ds. The test is described as follows: Locomotion test in macaques with nigral hM3Dq or rM3Ds AAV after CNO. It counts as in vivo. As to the method:
To guide the virus injection in SNr, a guide grid of multiple holes spaced by 1 mm was installed on each subject vertically above the SN. By filling vitamin E in these holes, the accurate coordinates for injection could be obtained from the T1-weighted MRI images (3T Tim Trio scanner, Siemens). Virus injections were performed in nine sites covering the whole SNr, and a total volume of 27 μL virus was unilaterally injected in the right SNr at the speed of 300 nL/min.
The locomotion tests for monkeys were conducted in a custom-made observation cage (100 cm×100 cm×100 cm). The top and front of the cage were made of toughened glass in order to gain a clear view for behavioral recording. Monkeys were habituated to the observation cage by placing them inside for 30 minutes on three separate days.
For monkeys injected with AAV8R12-G88P3-HA-hM3Dq, CNO was intracranially infused into the dorsomedial caudate through the recording chamber. To infuse while the animal was awake, the monkey was trained to sit in a primate chair specially designed with its head fixed to the primate chair by a mask made of thermoplastic materials. Injections were conducted through a 33-Gauge needle connected to a 250 μL syringe via a polyethylene pipe (Hamilton, Neuros). […] The needle was held for 5 minutes for drug diffusion before retraction. For monkeys injected with AAV8R12-G88P7-rM3Ds-2A-EYFP, CNO was infused via intramuscular injection (10 mg/kg). […] Videos capturing the subjects' behavior were recorded for at least 90 minutes. Animal behaviors from 30-90 minutes after saline/CNO infusion were further analyzed and quantified.
For rotation analysis, only movements that occurred lower than 30 cm on the z-axis were counted. To determine the direction of the rotation, we first computed the center for the rotation data in the x-y plane as (x0, y0) by averaging all data points, and then we computed the angle relative to (x0, y0) for each time point by the following formula:
where θi represents the rotating angle at time i, and (xi, yi) represents the x-y coordinate at time i. We then calculated the change of rotating angle as Δθi=θi−θi-1. For right nigral injections, when Δθ<0, the direction of the rotation was anticlockwise and was labeled as a contraversive rotation. When Δθ>0, the direction of the rotation was clockwise and was labeled as an ipsiversive rotation. The raw data were analyzed and plotted through a custom R package. Code is available on Github (github.com/chenyef/PD_ana/blob/main/Behavior_ana.txt).

The next test addresses T1, rM3Ds (Rattus norvegicus, UniProt P08483, A177S/A238G/A489L/DEL261-437/DEL441-478/E258S/I253V/I483M/INS256[…]/K178L/K182A/K255R/K484R/K486H/L173F/L482A/M480V/R171S/R176Q/R179M/S481M/T174R/T181R/T257A/Y148C).
T1 sequence (P08483 with tags, fused parts or gaps Y148C/R171S/L173F/T174R/R176Q/A177S/K178L/R179M/T181R/K182A/A238G/I253V/K255R/INS256[…]/T257A/E258S/DEL261-437/DEL441-478/M480V/S481M/L482A/I483M/K484R/K486H/A489L): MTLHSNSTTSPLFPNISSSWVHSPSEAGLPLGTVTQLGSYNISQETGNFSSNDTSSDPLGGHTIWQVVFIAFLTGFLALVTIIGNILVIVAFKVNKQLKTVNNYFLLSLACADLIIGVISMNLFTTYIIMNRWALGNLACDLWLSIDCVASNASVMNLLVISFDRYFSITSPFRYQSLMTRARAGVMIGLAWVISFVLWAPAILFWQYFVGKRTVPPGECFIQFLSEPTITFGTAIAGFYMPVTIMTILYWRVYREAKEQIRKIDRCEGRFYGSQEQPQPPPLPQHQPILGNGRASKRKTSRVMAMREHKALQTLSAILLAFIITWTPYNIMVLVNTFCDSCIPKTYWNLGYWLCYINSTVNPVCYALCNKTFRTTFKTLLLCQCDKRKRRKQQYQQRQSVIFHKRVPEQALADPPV
The test is described as follows: 6-OHDA parkinsonian mouse model: open field and rotarod. It counts as in vivo, C57/BL6 mice. To be noted: AAV8R12-G88P7-rM3Ds-2A-EYFP, 6-OHDA mice. Also on record: rM3Ds; 2A-EYFP (C); host or cells: AAV8R12-transduced striatal D1-MSNs of mice and cynomolgus macaques (in vivo and acute slices). The procedure:
Rodent Parkinson's disease mice models were created through bilateral injection of 6-OHDA using the same methods as described in virus injections (Example 3). A total volume of 1 ul 6-OHDA (5 mg/ml, dissolved in sterile saline containing 0.02% ascorbic acid, Sigma) was injected into the striatum at a speed of 100 nL/min. The coordinates for striatum were 0.5 mm anterior, 1.5 mm lateral, 3.2 mm ventral to the bregma. A premedication of desipramine (25 mg/kg, Sigma) was administered to animals prior to injections of 6-OHDA, in order to increase the selectivity and efficacy of 6-OHDA-induced lesions. Mice were supplemented with DietGel (ClearH2O) for one-week post-surgery. All staining and behavioral experiments were performed at least 14 days following surgery, when the amount of dopamine depletion was maximal and stable.
Mice were individually handled for 10-20 seconds per day for at least 5 days to habituate them to the experimenter. The open field test was conducted in a test apparatus (50 cm×50 cm×50 cm) with an HD digital camera (Sony) positioned above the arena. On day one, mice were habituated to the apparatus for 10 minutes. […] The behavioral data were analyzed with ANY-maze software (Stoelting Co.).
Mice were individually handled as described in the open field test. […] Latency to fall for each trial was automatically recorded by the apparatus. […]
(In the rotarod test animals must keep their balance on a rotating rod.)

As to `C[N+]1([O-])CCN(C2=Nc3cc(Cl)ccc3Nc3ccccc32)CC1` [CNO, clozapine N-oxide], in the test on hM3Dq or rM3Ds (following CNO infusions), the “muscle tone by electromyogram recordings” value is listed as “an increase in the muscle tone of the contralateral biceps brachii”. The “contraversive rotations (FIG. 10C)” value in the test on hM3Dq or rM3Ds (intracranial (hM3Dq) or systemic (rM3Ds) CNO, n=4 monkeys, mean±SEM, saline 1.004±0.2667) came to 6.649±1.662. For the same molecule, the “velocity of ipsiversive rotations (FIG. 10H)” value in the test on hM3Dq or rM3Ds (n=4 monkeys, saline 37.43±3.264, not significant) turned out to be 41.37±6.566. The “speed during contraversive rotations (FIG. 10G)” value in the test with hM3Dq or rM3Ds (n=4 monkeys, saline 38.42±5.465) is 46.98±6.669. In addition, the “time in the top portion of the observing cage (FIG. 10D)” value in the test on hM3Dq or rM3Ds (n=4 monkeys, saline 68.42±10.7) is listed as 33.74±2.641. For the same molecule, in the test with hM3Dq or rM3Ds (n=4 monkeys, saline 71.53±15.4, not significant), the “total distance (FIG. 10F)” value is reported as 97.37±19.41. In the test on hM3Dq or rM3Ds (n=4 monkeys, saline 107.1±2.322, not significant), the “immobile time (FIG. 10E)” value was 89.13±8.379. Besides, the “rotations 2.5 years after the nigral injections” value with hM3Dq or rM3Ds (systemic CNO, unilateral AAV8R12-G88P7-rM3Ds-2A-EYFP) is reported as “increased contraversive rotations”. Besides, at rM3Ds (CNO), the “motor skill in rotarod test” value was “partially rescued the motor skill deficit”. For the same molecule, the “spontaneous movement in an open field” value at rM3Ds (systemic CNO) is “drastically reversed the dyskinesia-like phenotype of PD mice”.

Values taken from patent US20250381307A1, “RETRO-AAV AND USE IN TREATING NEURODEGENERATIVE DISEASES” (priority 2023, published 2025).
